Data: patent US20230278972A1, “SUBSTITUTED HALOALKYL SULFONANILIDE HERBICIDES” (FMC Corporation, priority 2020, published 2023)

Columns and labels:
Format in all cases: in vivo
[1] = system: goosegrass (Eleusine indica); assay: Test A1 postemergence, goosegrass; conditions: for Plant response rating, Goosegrass: Postemergence
In short: (§1)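 Herbicidal response was scored on plants treated either preemergence, by directed spray onto soil of a loam–sand blend after sowing, or postemergence on potted plants at the one- to two-leaf stage, 2–10 cm high. Test chemicals were carried in a non-phytotoxic solvent mix with surfactant.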

[2] = system: blackgrass (Alopecurus myosuroides); assay: Test A1 preemergence, blackgrass
In short: as §1

corn (Zea mays) = assay: Test A1 postemergence, corn; conditions: Postemergence
In short: as §1

[3] = system: goosegrass (Eleusine indica); assay: Test A1 preemergence, goosegrass
In short: as §1

[4] = system: Ryegrass, Italian (Italian ryegrass, Lolium multiflorum); assay: Test A1 postemergence, Ryegrass, Italian; conditions: for Plant response rating, Ryegrass, Italian: Postemergence
In short: as §1

[5] = system: Pigweed, Palmer (palmer amaranth, palmer pigweed, Amaranthus palmeri); assay: Test A1 preemergence, Pigweed, Palmer
In short: as §1

[6] = system: horseweed (Erigeron canadensis); assay: Test A1 postemergence, horseweed; conditions: for Plant response rating, Horseweed: Postemergence
In short: as §1

soybean (Glycine max) = assay: Test A1 preemergence, soybean
In short: as §1

[7] = 31 g ai/ha, 0 to 100 scale (0 no effect, 100 complete control), 10 days
[8] = 31 g ai/ha, 0 to 100 scale (0 no effect, 100 complete control)
[9] = 125 g ai/ha, 0 to 100 scale, 0 no effect, 100 complete control
[10] = 31 g ai/ha, postemergence, 0 to 100 scale (0 no effect, 100 complete control)

| Structure (SMILES) | Plant response rating, Goosegrass [1, 7] | Plant response rating, Goosegrass ([1]; 125 g ai/ha, 0 to 100 scale) | Plant response rating, Blackgrass [2, 8] | Plant response rating, Blackgrass [2, 9] | Plant response rating, Corn (corn (Zea mays); [7]) | Plant response rating, Corn (corn (Zea mays); 125 g ai/ha, 0 to 100 scale) | Plant response rating, Goosegrass [3, 8] | Plant response rating, Goosegrass [3, 9] | Plant response rating, Ryegrass, Italian [4, 7] | Plant response rating, Ryegrass, Italian ([4]; 125 g ai/ha, 0 to 100 scale) | Plant response rating, Pigweed, Palmer [5, 8] | Plant response rating, Pigweed, Palmer [5, 9] | Plant response rating, Horseweed [6, 7] | Plant response rating, Horseweed ([6]; 125 g ai/ha, 0 to 100 scale) | Plant response rating, Soybean (soybean (Glycine max); [8]) | Plant response rating, Soybean (soybean (Glycine max); [9]) | Goosegrass plant response rating [1, 10] | Ryegrass, Italian plant response rating [4, 10] | Horseweed plant response rating [6, 10] |
| --- | --- | --- | --- | --- | --- | --- | --- | --- | --- | --- | --- | --- | --- | --- | --- | --- | --- | --- | --- |
| Cc1c(C(=O)N2CCC(F)CC2)cc(N(COC(=O)C(C)(C)C)S(=O)(=O)C(F)(F)F)c(C)c1C [Compound 361] | 0 | 30 | 0 | 0 | 0 | 40 | 10 | 100 | 0 | 0 | 0 | 20 | 70 | 90 | 0 | 20 |  |  |  |
| Cc1cc(C)c(N(COC(=O)C(C)(C)C)S(=O)(=O)C(F)(F)F)cc1C(=O)N1CCOCC1 [Compound 362] | 40 | 90 | 10 | 50 | 0 | 40 | 90 | 100 | 30 | 90 | 10 | 80 | 90 | 90 | 10 | 40 |  |  |  |
| CCOC(=O)N(c1cc(C(=O)N2CCOCC2)c(C)cc1C)S(=O)(=O)C(F)(F)F [Compound 363] | 30 | 90 | 50 | 90 | 30 | 60 | 100 | 100 | 20 | 90 | 90 | 100 | 80 | 90 | 10 | 30 |  |  |  |
| Cc1cc(C)c(N(COC(=O)C(C)(C)C)S(=O)(=O)C(F)(F)F)cc1C(=O)N1CCC(c2ccccc2)CC1 [Compound 364] | 0 | 0 | 0 | 0 | 0 | 0 | 0 | 0 | 0 | 0 | 0 | 0 | 0 | 0 | 0 | 0 |  |  |  |
| CCOC(=O)N(c1cc(C(=O)N2CCC(c3ccccc3)CC2)c(C)cc1C)S(=O)(=O)C(F)(F)F [Compound 365] | 0 | 0 | 0 | 0 | 0 | 0 | 10 | 90 | 0 | 10 | 30 | 30 | 10 | 20 | 0 | 0 |  |  |  |
| CCC1CC(c2cc(N(COC(=O)C(C)(C)C)S(=O)(=O)C(F)(F)F)c(C)cc2C)=NO1 (stereo not drawn) [Compound 376] |  | 50 | 0 | 20 | 0 | 0 | 50 | 100 |  | 0 | 0 | 40 |  | 0 | 0 | 0 | 0 | 0 | 0 |
